Experiment [1] deals with T1, HEK293-EBNA cells transfected with pCEP4-hEP4 receptors (Homo sapiens, UniProt P35408).
T1 construct: expressed in transfected cells; host or cells: HEK293-EBNA
Put plainly: EP4 cAMP assay. The conditions noted are these: total cAMP, 1 hour 37° C. The experiment is classed as cell-based. The method, then: (§1) Compounds of the invention were tested in a total cAMP assay as follows. HEK293-EBNA cells transfected with pCEP4-hEP4 receptors were seeded in 96 well opaque plate (Costar #3917) at 4×10^4 cells per well in 100 μl of culture medium (D-MEM/F12 supplemented with 10% FBS, […] L-glutamine, and 250 μg/ml of hygromycin; all from GibcoBRL) and incubated at 37° C. After overnight incubation, the medium was removed from each well and replaced with 45 μl of assay medium consisted of phenol red free D-MEM/F-12, 0.1% BSA (GibcoBRL) and 0.1 mM3-isobutyl-1-methyl-xanthine (Sigma). After 15 minutes of incubation at 37° C., 16-16-dimethyl PGE-2 or compounds of the invention at desired concentrations in 20 μl of assay medium were added to cells and further incubated at 37° C. for 1 hour. Total cAMP (intra- and extra-cellular) was measured by using a cAMP-screen ELISA System (Tropix, #CS1000).
In Table II, the tested compound is identified both by the corresponding synthetic Example number above as well as structure of the tested compound.
Background: Changes in cAMP serve as a functional read-out for many G protein-coupled receptors.

The target in experiment [2] is T2, HEK293-EBNA cells transfected with pCEP4-hEP2 receptors (Homo sapiens, UniProt P43116).
T2 construct: expressed in transfected cells; host or cells: HEK293-EBNA
Put plainly: EP2 cAMP assay. In kind it is cell-based. The note with it: total cAMP, 1 hour 37° C. The method, then: as §1, with “pCEP4-hEP2” for “pCEP4-hEP4”, “compounds” for “compounds of the invention”

A further experiment has as its target EP4 receptor (Homo sapiens, UniProt P35408). Put plainly: EP4 receptor binding assay (3H-PGE2 SPA). The conditions noted are these: EP4 receptor membranes, 20 nM 3H-PGE2, pH 6.0, 2 hrs room temperature. The method, then: Compounds of the invention were tested in an EP4 receptor binding assay of the following protocol.
The target of another experiment is EP2 receptor (Homo sapiens, UniProt P43116). Kind of experiment: EP2 receptor binding assay (3H-PGE2 SPA). The note with it: EP2 receptor membranes, 20 nM 3H-PGE2, pH 6.0, 2 hrs room temperature. Here is the method:
Compounds of the invention were tested in an EP2 receptor binding assay of the following protocol. As referred to herein, the term a “standard EP2 receptor binding assay” designates the following protocol.

Sequence of EP4 receptor (P35408 whole entry): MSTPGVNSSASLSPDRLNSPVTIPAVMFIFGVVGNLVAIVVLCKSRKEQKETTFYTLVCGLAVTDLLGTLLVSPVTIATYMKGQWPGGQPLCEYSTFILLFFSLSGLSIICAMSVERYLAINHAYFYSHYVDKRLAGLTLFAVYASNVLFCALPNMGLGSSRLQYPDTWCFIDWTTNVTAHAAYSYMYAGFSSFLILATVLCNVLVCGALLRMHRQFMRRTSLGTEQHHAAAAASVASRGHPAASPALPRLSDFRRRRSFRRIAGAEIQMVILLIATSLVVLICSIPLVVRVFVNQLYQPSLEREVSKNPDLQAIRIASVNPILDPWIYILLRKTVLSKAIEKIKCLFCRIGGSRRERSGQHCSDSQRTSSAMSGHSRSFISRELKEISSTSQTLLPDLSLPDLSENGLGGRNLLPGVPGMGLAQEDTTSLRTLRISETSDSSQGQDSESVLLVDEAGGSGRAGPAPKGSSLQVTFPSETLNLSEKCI
T1 sequence (P35408 whole entry): as above
Sequence of EP2 receptor (P43116 whole entry): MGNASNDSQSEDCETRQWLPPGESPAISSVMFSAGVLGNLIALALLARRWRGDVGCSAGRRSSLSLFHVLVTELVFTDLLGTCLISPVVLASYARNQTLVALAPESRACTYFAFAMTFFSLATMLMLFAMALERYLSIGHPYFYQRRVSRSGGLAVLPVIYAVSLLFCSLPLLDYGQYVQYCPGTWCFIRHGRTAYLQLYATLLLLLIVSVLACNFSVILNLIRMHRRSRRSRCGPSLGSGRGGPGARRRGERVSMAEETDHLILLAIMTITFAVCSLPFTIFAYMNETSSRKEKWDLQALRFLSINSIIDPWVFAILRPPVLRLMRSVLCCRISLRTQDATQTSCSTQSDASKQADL
T2 sequence (P43116 whole entry): as above

In general, EC50 refers to the concentration at which the effect is half-maximal. The low end stands for an effect from little substance, the high end for a need for much substance. By Ki is commonly meant a dissociation constant, usually derived from enzyme kinetics or from competition with a known ligand. Low values mean a stronger hold on the target, high ones a looser hold on the target. Take `CCCCCC(O)CCN1CCC(=O)N1CCc1ccc(C(=O)O)cc1` (centres unmarked) [Example 1, 4-[2-(2-(3-hydroxyoctyl)-5-oxopyrazolidin-1-yl)ethyl]benzoic acid]: the EC50 amounted to 0.005 µM in experiment [1] and 0.595 µM in experiment [2]. In addition, the Ki is 0.25 µM on EP4 receptor and 2.2 µM on EP2 receptor.

`CCCCCC(O)CCCN1CCC(=O)N1CCc1ccc(C(=O)O)cc1` (centres unmarked) [Example 3, 4-{2-[2-(4-hydroxynonyl)-5-oxopyrazolidin-1-yl]ethyl}benzoic acid] showed a half-maximal effective concentration (EC50) in experiment [2] of 1.3 µM. In addition, the Ki on EP4 receptor is 2 µM; at EP2 receptor, 2.44 µM.

The compound `CCCCCC(O)/C=C/CN1CCC(=O)N1CCc1ccc(C(=O)O)cc1` (centres unmarked) [Example 5, 4-(2-{2-[(2E)-4-hydroxynon-2-enyl]-5-oxopyrazolidin-1-yl}ethyl)benzoic acid] gave a half-maximal effective concentration (EC50) in experiment [2] of 12.5 µM. In addition, the affinity on EP2 receptor, expressed as Ki, was 25.9 µM.

`O=C(O)c1ccc(CCN2C(=O)CCN2CCCC(O)C2(CC3CC3)CCC2)cc1` (centres unmarked) [Example 18, 4-[2-(2-{4-[1-(cyclopropylmethyl)cyclobutyl]-4-hydroxybutyl}-5-oxopyrazolidin-1-yl)ethyl]benzoic acid] gave an EC50 in experiment [2] of 0.578 µM. Further, the affinity at EP2 receptor, expressed as Ki, was 0.61 µM.

As for `CC(C)CC(O)CCCN1CCC(=O)N1CCc1ccc(C(=O)O)cc1` (centres unmarked) [Example 7, 4-{2-[2-(4-hydroxy-6-methylheptyl)-5-oxopyrazolidin-1-yl]ethyl}benzoic acid], in experiment [2], the EC50 was 9.7 µM. In addition, the affinity at EP2 receptor, expressed as Ki, was 28.6 µM.

Compound `CCCCCC(O)C#CCN1CCC(=O)N1CCc1ccc(C(=O)O)cc1` (centres unmarked) [Example 2, 4-{2-[2-(4-hydroxynon-2-ynyl)-5-oxopyrazolidin-1-yl]ethyl}benzoic acid] returned an EC50 in experiment [2] above 50 µM. On EP2 receptor, this compound came in with a Ki above 50 µM.

In experiment [2], `CCCCCC(O)/C=C\CN1CCC(=O)N1CCc1ccc(C(=O)O)cc1` (centres unmarked) [Example 4, 4-(2-{2-[(2Z)-4-hydroxynon-2-enyl]-5-oxopyrazolidin-1-yl}ethyl)benzoic acid] had a half-maximal effective concentration (EC50) of 2.6 µM. Further, the inhibition constant Ki on EP2 receptor is 17.2 µM.

In experiment [2], `CCCCCC(C)(O)CCCN1CCC(=O)N1CCc1ccc(C(=O)O)cc1` (centres unmarked) [Example 16, 4-{2-[2-(4-Hydroxy-4-methylnonyl)-5-oxopyrazolidin-1-yl]-ethyl}-benzoic acid] gave a half-maximal effective concentration (EC50) of 1.6 µM. At EP2 receptor, affinity was put at a Ki of 0.475 µM.

The compound `CCCC(C)(O)CCCN1CCC(=O)N1CCc1ccc(C(=O)O)cc1` (centres unmarked) [Example 10, 4-{2-[2-(4-hydroxy-4-methylheptyl)-5-oxopyrazolidin-1-yl]ethyl}benzoic acid] gave an EC50 in experiment [2] of 5.3 µM. Further, the Ki at EP2 receptor was 28.9 µM.

In the case of `O=C(O)c1ccc(CCN2C(=O)CCN2CCC(O)Cc2cccc(Cl)c2)cc1` (centres unmarked) [Example 29, 4-(2-{2-[4-(3-chlorophenyl)-3-hydroxybutyl]-5-oxopyrazolidin-1-yl}ethyl)benzoic acid], the inhibitory constant (Ki) is 0.018 µM on EP4 receptor and 5.69 µM on EP2 receptor.

Regarding `CCCCCC(O)CCCN1CCC(=O)N1CCc1ccc(C(=O)O)cc1` (stereo in doubt) [Example 15, 4-{2-[2-((4R)-hydroxynonyl)-5-oxopyrazolidin-1-yl]ethyl}benzoic acid], the 50% effective concentration (EC50) in experiment [2] is 1.5 µM. Further, the inhibition constant Ki at EP2 receptor was 3.26 µM.

For `CC(C)CC(O)CCN1CCC(=O)N1CCc1ccc(C(=O)O)cc1` (centres unmarked) [Example 12, 4-{2-[2-(3-hydroxy-5-methylhexyl)-5-oxopyrazolidin-1-yl]ethyl}benzoic acid], the values for the half-maximal effective concentration (EC50) in experiment [1] and in experiment [2] were 0.277 µM and 15 µM, respectively. For the same compound, the figures for the Ki at EP4 receptor and on EP2 receptor were 2 µM and 4.41 µM, respectively.

In the case of `CC(c1ccccc1)C(O)CCN1CCC(=O)N1CCc1ccc(C(=O)O)cc1` (stereo in doubt) [Example 30, 4-(2-{2-[(4R)-3-hydroxy-4-phenylpentyl]-5-oxopyrazolidin-1-yl}ethyl)benzoic acid], the values for the Ki on EP4 receptor and on EP2 receptor were 0.093 µM and 5.13 µM, respectively.

Regarding `CC(c1ccccc1)C(O)CCN1CCC(=O)N1CCc1ccc(C(=O)O)cc1` (stereo in doubt) [Example 27, 4-(2-{2-[(4S)-3-hydroxy-4-phenylpentyl]-5-oxopyrazolidin-1-yl}ethyl)benzoic acid], the figures for the inhibitory constant (Ki) on EP4 receptor and on EP2 receptor were 0.095 µM and 7.09 µM, respectively.

In the case of `CCCC(C)C(O)CCN1CCC(=O)N1CCc1ccc(C(=O)O)cc1` (centres unmarked) [Example 13, 4-{2-[2-(3-hydroxy-4-methylheptyl)-5-oxopyrazolidin-1-yl]ethyl}benzoic acid], in experiment [2], a half-maximal effect (EC50) was put at 5 µM. Moreover, the inhibition constant Ki was 6 µM at EP4 receptor and 2.76 µM at EP2 receptor.

For the compound `O=C(O)c1ccc(CCN2C(=O)CCN2CCC(O)Cc2cccc(F)c2)cc1` (centres unmarked) [Example 25, 4-(2-{2-[4-(3-fluorophenyl)-3-hydroxybutyl]-5-oxopyrazolidin-1-yl}ethyl)benzoic acid], the inhibition constant (Ki) on EP4 receptor was 0.036 µM; at EP2 receptor it was 6.29 µM.

In experiment [2], `CCC1(C(O)CCCN2CCC(=O)N2CCc2ccc(C(=O)O)cc2)CCC1` (centres unmarked) [Example 19, 4-(2-{2-[4-(1-ethylcyclobutyl)-4-hydroxybutyl}-5-oxopyrazolidin-1-yl}ethyl)benzoic acid] showed an EC50 of 0.393 µM. In addition, the Ki at EP2 receptor stood at 0.75 µM.

`O=C(O)c1ccc(CCN2C(=O)CCN2CCC(O)Cc2ccccc2)cc1` (centres unmarked) [Example 21, 4-{2-[2-(3-hydroxy-4-phenylbutyl)-5-oxopyrazolidin-1-yl]ethyl}benzoic acid]: the Ki was 0.068 µM at EP4 receptor and 6.2 µM at EP2 receptor.

In the case of `CC(C)CCC(C)(O)CCCN1CCC(=O)N1CCc1ccc(C(=O)O)cc1` (centres unmarked) [Example 11, 4-{2-[2-(4-hydroxy-4,7-dimethyloctyl)-5-oxopyrazolidin-1-yl]ethyl}benzoic acid], in experiment [2], the response was half-maximal at 10 µM (EC50). Further, the affinity at EP2 receptor, expressed as Ki, was 20.2 µM.

On to `CCCCC(O)CCCN1CCC(=O)N1CCc1ccc(C(=O)O)cc1` (centres unmarked) [Example 6, 4-{2-[2-(4-hydroxyoctyl)-5-oxopyrazolidin-1-yl]ethyl}benzoic acid], for which the EC50 in experiment [2] was 1.4 µM. The same compound showed an inhibition constant Ki on EP2 receptor of 5.66 µM.

In experiment [2], `O=C(O)c1ccc(CCN2C(=O)CCN2CCC(O)Cc2cccc(C(F)(F)F)c2)cc1` (centres unmarked) [Example 26, 4-[2-(2-{3-hydroxy-4-[3-(trifluoromethyl)phenyl]butyl}-5-oxopyrazolidin-1-yl)ethyl]benzoic acid] showed an EC50 of 17.6 µM. This compound also had a Ki on EP2 receptor of 6.65 µM.

The compound `CCCCC(O)(CC)CCCN1CCC(=O)N1CCc1ccc(C(=O)O)cc1` (centres unmarked) [Example 9, 4-{2-[2-(4-ethyl-4-hydroxyoctyl)-5-oxopyrazolidin-1-yl]ethyl}benzoic acid] displayed an EC50 in experiment [2] of 0.461 µM. The compound further displayed a Ki at EP2 receptor of 0.495 µM.

Take `O=C(O)c1ccc(CCN2C(=O)CCN2CCC(O)Cc2cccc(OC(F)(F)F)c2)cc1` (centres unmarked) [Example 24, 4-[2-(2-{3-hydroxy-4-[3-(trifluoromethoxy)phenyl]butyl}-5-oxopyrazolidin-1-yl)ethyl]benzoic acid]: the inhibition constant (Ki) was 0.059 µM on EP4 receptor and 2.83 µM at EP2 receptor.

Consider `CCCCCC(O)CCCN1CCC(=O)N1CCc1ccc(C(=O)O)cc1` (stereo in doubt) [Example 14, 4-{2-[2-((4S)-hydroxynonyl)-5-oxopyrazolidin-1-yl]ethyl}benzoic acid], for which the EC50 in experiment [1] amounted to 0.01 µM; in experiment [2] it was 0.566 µM. Besides, the Ki on EP4 receptor is 0.566 µM; at EP2 receptor, 1.86 µM.

Consider `CCCC(C)C(O)CCCN1CCC(=O)N1CCc1ccc(C(=O)O)cc1` (centres unmarked) [Example 8, 4-{2-[2-(4-hydroxy-5-methyloctyl)-5-oxopyrazolidin-1-yl]ethyl}benzoic acid], for which the EC50 in experiment [2] was 2.1 µM. Besides, affinity at EP2 receptor was put at a Ki of 5.16 µM.

`O=C(O)c1ccc(CCN2C(=O)CCN2CCC(O)Cc2ccc3c(c2)OCO3)cc1` (centres unmarked) [Example 28, 4-(2-{2-[4-(1,3-benzodioxol-5-yl)-3-hydroxybutyl]-5-oxopyrazolidin-1-yl}ethyl)benzoic acid] came in with a Ki at EP4 receptor of 0.376 µM.

(Values after patent US7863312B2, “Pyrazolidinone compounds as ligands of the prostaglandin EP2 and/or EP4 receptors” (Merck Serono SA, priority 2001, dated 2011).)
